Data taken from patent publication US12667106B2, “Stabilized mutants of quorum quenching lactonase and use thereof in treatment of pathogens” (priority 2019, dated 2026).

Key:
[1] = target: putative parathion hydrolase (PPH) from M. tuberculosis, variant PPH_R2:P4-D5, G58V (G59V in SEQ ID NO: 1 numbering; SEQ ID NO: 2), MBP fusion SEQ ID NO: 11 (Mycobacterium tuberculosis, UniProt P9WHN9, G55V); type: biochemical; conditions: pH 8.3
[2] = target: putative parathion hydrolase (PPH) from M. tuberculosis, variant PPH_R2:P8-D12, H171Y (H172Y in SEQ ID NO: 1 numbering; SEQ ID NO: 3), MBP fusion SEQ ID NO: 12 (Mycobacterium tuberculosis, UniProt P9WHN9, H168Y); type: biochemical; conditions: pH 8.3

CCCC(=O)CC(=O)N[C@H]1CCOC1=O [C6-oxo-HSL, N-(3-oxo-hexanoyl)-homoserine lactone]
kcat [1]: 18.66 ± 1.16 s⁻¹
kcat [2]: 10.16 ± 1.46 s⁻¹
